Among the data in ChEMBL document CHEMBL1135665, “Synthesis and biological evaluation of 14-alkoxymorphinans. 17. Highly delta opioid receptor selective 14-alkoxy-substituted indolo- and benzofuromorphinans” (J Med Chem, 2002) are Ki and Selectivity values, retold here.

Each structure is given as a SMILES string.

The target in assay [1] is T1, Kappa-type opioid receptor (Cavia porcellus, UniProt P41144). Put plainly: Binding affinity at kappa opioid receptor 1 in guinea pig brain by [3H]U-69593 displacement.
Assay [2] concerns the target T2, Delta-type opioid receptor (Rattus norvegicus, UniProt P33533). In words: Binding affinity at delta opioid receptor 1 in rat brain membrane by [3H]DADLE displacement. It counts as cell membranes.
Assay [3] has as its target Mu-type opioid receptor (Rattus norvegicus, UniProt P33535). In words: Binding affinity at mu opioid receptor 1 in rat brain membrane by [3H]DAMGO displacement. The class given is cell membranes.
For assay [4], the species on record is Rattus norvegicus. In words: Selectivity ratio (Ki value towards kappa receptor compared to that of delta receptor).
The target in assay [5] is Opioid receptors; mu & delta (Rattus norvegicus) (UniProt P33533+P33535). In words: Selectivity ratio (Ki value towards mu receptor compared to that of delta receptor). The class given is protein assay.
Assay [6] addresses T2, Delta-type opioid receptor. In words: Opioid receptor delta 1 binding affinity was determined by inhibition of binding of [3H]DADLE to rat brain membrane.
Assay [7] deals with Mu-type opioid receptor (Cavia porcellus, UniProt P97266). Put plainly: The ability of compound to inhibit [35S][…] binding in guinea pig caudate stimulated by DAMGO (Opioid receptor mu 1) antagonist. The class given is functional.
Assay [8] has as its target T1, Kappa-type opioid receptor. In words: The ability of compound to inhibit [35S][…] binding in guinea pig caudate stimulated by U69,593 (Opioid receptor kappa 1) antagonist. The class given is functional.

Chain of Mu-type opioid receptor (Rattus norvegicus, UniProt P33535) (P33535 whole entry): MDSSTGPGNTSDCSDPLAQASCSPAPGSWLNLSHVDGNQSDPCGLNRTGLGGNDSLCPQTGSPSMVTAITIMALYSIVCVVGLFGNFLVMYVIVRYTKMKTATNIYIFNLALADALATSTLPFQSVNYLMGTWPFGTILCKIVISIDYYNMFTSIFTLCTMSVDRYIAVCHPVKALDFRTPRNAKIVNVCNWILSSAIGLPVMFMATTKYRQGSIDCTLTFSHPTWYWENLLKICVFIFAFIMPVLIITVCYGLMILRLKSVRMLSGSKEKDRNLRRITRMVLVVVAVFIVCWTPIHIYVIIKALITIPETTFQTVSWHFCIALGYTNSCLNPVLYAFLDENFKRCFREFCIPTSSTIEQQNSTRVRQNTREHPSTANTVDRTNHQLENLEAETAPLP
Chain of Opioid receptors; mu & delta (Rattus norvegicus) (P33533 whole entry, looked up): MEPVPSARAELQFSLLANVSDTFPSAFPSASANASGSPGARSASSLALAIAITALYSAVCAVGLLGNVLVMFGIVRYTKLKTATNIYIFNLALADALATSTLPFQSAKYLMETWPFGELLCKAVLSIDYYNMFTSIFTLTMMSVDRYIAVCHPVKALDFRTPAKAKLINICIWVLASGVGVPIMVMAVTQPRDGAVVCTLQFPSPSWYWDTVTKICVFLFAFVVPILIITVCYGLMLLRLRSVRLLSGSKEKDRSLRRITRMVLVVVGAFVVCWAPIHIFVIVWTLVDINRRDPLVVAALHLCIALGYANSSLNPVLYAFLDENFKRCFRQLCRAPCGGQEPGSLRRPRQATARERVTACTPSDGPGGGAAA
Chain of Opioid receptors; mu & delta (Rattus norvegicus) (P33535 whole entry, looked up): as the sequence (P33535 whole entry) above
T2 sequence (P33533 whole entry): as the sequence (P33533 whole entry, looked up) above
T1 sequence (P41144 whole entry): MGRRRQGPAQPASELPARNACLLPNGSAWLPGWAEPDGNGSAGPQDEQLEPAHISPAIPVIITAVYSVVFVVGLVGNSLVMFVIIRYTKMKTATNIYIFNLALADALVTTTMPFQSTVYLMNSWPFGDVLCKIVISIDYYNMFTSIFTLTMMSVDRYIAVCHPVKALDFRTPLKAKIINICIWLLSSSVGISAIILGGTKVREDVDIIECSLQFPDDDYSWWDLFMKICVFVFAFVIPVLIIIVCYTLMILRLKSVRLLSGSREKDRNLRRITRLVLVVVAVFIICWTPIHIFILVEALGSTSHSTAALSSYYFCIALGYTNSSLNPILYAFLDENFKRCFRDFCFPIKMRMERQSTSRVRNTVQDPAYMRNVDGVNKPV
Chain of Mu-type opioid receptor (Cavia porcellus, UniProt P97266) (P97266 whole entry): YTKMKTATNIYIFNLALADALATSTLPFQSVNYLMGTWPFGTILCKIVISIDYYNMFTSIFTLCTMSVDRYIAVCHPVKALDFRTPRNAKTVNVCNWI

For orientation: Ki means a dissociation constant, usually derived from enzyme kinetics or from competition with a known ligand. Low values mean tighter binding, high ones weaker binding. Regarding `C=CCN1CC[C@]23c4c5ccc(O)c4O[C@H]2c2oc4ccccc4c2C[C@@]3(OCC)[C@H]1C5`, the Ki in assay [1] is 68 nM; in assay [2] it was 1.2 nM; in assay [3], 22.8 nM. Further, the values for the Selectivity in assay [4] and in assay [5] were 57 and 19, respectively.
In the case of `CN1CC[C@]23c4c5ccc(O)c4O[C@H]2c2[nH]c4ccccc4c2C[C@@]3(O)[C@H]1C5` [OXYMORPHINDOLE], the Ki in assay [1] came to 395 nM; in assay [6] it was 2 nM; in assay [3] it was 171 nM. In addition, the Selectivity in assay [4] came out at 198; in assay [5] it was 86.
With `C=CCN1CC[C@]23c4c5ccc(O)c4O[C@H]2c2[nH]c4ccccc4c2C[C@@]3(OC)[C@H]1C5`, the Ki was 233 nM in assay [1], 3.8 nM in assay [2] and 869 nM in assay [3]. Moreover, the Selectivity came to 61 in assay [4] and 229 in assay [5].
In the same order, the values of `CO[C@@]12Cc3c([nH]c4ccccc34)[C@@H]3Oc4c(O)ccc5c4[C@@]31CCN(CC1CCCCC1)[C@@H]2C5` are 3250 nM, 370 nM, 14000 nM, 8.8 and 38.
Turning to `CCO[C@@]12Cc3c([nH]c4ccccc34)[C@]3(C)Oc4c(O)ccc5c4C31CCN(CC1CC1)[C@@H]2C5`, the Ki in assay [7] is above 10000 nM; in assay [8], above 10000 nM; in assay [1], 134 nM; in assay [2], 4.4 nM; in assay [3] it was 340 nM. Moreover, the results for the Selectivity in assay [4] and in assay [5] were 30 and 77, respectively.
As to `CCO[C@@]12Cc3c([nH]c4ccccc34)[C@]3(C)Oc4c(O)ccc5c4[C@@]31CCN(CC1CCC1)[C@@H]2C5`, the Ki in assay [1] amounted to 378 nM; in assay [2], 12.6 nM; in assay [3] it was 409 nM. Besides, the Selectivity in assay [4] amounted to 30; in assay [5] it was 32.
Taken in the same sequence, the figures for `CCCO[C@@]12Cc3c(n(CCC)c4ccccc34)[C@@H]3Oc4c(O)ccc5c4[C@@]31CCN(CC1CC1)[C@@H]2C5` were 3.1 nM, 1.28 nM, 14.8 nM, 2.4 and 12.
As for `C=CCN1CC[C@]23c4c5ccc(O)c4O[C@H]2c2c(c4ccccc4n2C)C[C@@]3(OC)[C@H]1C5`, the Ki in assay [1] was 149 nM; in assay [2] it was 1.97 nM; in assay [3] it was 731 nM.
Turning to `CC(C)CCO[C@@]12Cc3c([nH]c4ccccc34)[C@]3(C)Oc4c(O)ccc5c4[C@@]31CCN(C)[C@@H]2C5`, the Ki in assay [1] stood at 1260 nM; in assay [2], 12.8 nM; in assay [3], 238 nM. Besides, the Selectivity in assay [4] is 99; in assay [5], 19.
For `CCO[C@@]12Cc3c(oc4ccccc34)[C@@H]3Oc4c(O)ccc5c4[C@@]31CCN(CC1CC1)[C@@H]2C5`, the Ki was above 10000 nM in assay [7]; above 10000 nM in assay [8]; 94 nM in assay [1]; 1.18 nM in assay [2]; 185 nM in assay [3]. Moreover, the Selectivity in assay [4] stood at 80; in assay [5], 157.
For `C=CCN1CC[C@]23c4c5ccc(O)c4O[C@H]2c2[nH]c4ccccc4c2C[C@@]3(OCC)[C@H]1C5`, the Ki in assay [7] is above 10000 nM; in assay [8], above 10000 nM; in assay [1] it was 349 nM; in assay [2], 2.6 nM; in assay [3], 1370 nM. The figures for the Selectivity in assay [4] and in assay [5] were 134 and 526, respectively.
Consider `CCCO[C@@]12Cc3c([nH]c4ccccc34)[C@]3(C)Oc4c(O)ccc5c4[C@@]31CCN(C)[C@@H]2C5`, for which the results for the inhibition constant Ki in assay [1], in assay [2] and in assay [3] were 556 nM, 5.3 nM and 30 nM, respectively. Moreover, the Selectivity came out at 105 in assay [4] and 5.7 in assay [5].
In the same order, the values of `CCO[C@@]12Cc3c([nH]c4ccccc34)[C@]3(C)Oc4c(O)ccc5c4[C@@]31CCN(C)[C@@H]2C5` are 725 nM, 3.9 nM, 515 nM, 186 and 132.
`Oc1ccc2c3c1O[C@H]1c4[nH]c5ccccc5c4C[C@@]4(O)[C@@H](C2)N(CC2CC2)CC[C@]314` [NALTRINDOLE]: the Ki is 15.8 nM in assay [1] and 0.81 nM in assay [2].
As to `CCCN1CC[C@]23c4c5ccc(O)c4O[C@H]2c2c(c4ccccc4n2C)C[C@@]3(OC)[C@H]1C5`, the Ki was determined as 115 nM in assay [1], 11.5 nM in assay [2] and 106 nM in assay [3]. The figures for the Selectivity in assay [4] and in assay [5] were 10 and 9.2, respectively.
In the case of `CO[C@@]12Cc3c([nH]c4ccccc34)[C@]3(C)Oc4c(O)ccc5c4[C@@]31CCN(C)[C@@H]2C5`, the Ki was found to be 1530 nM in assay [1], 3.95 nM in assay [2] and 58 nM in assay [3]. Besides, the Selectivity in assay [4] worked out at 387; in assay [5] it was 15.
In the same order, the values of `CCCO[C@@]12Cc3c([nH]c4ccccc34)[C@]3(C)Oc4c(O)ccc5c4[C@@]31CCN(CC1CC1)[C@@H]2C5` are 504 nM, 5.3 nM, 555 nM, 95 and 105.
Turning to `C=CCO[C@@]12Cc3c(n(CC=C)c4ccccc34)[C@@H]3Oc4c(O)ccc5c4[C@@]31CCN(CC=C)[C@@H]2C5`, the Ki amounted to 763 nM in assay [1], 7.3 nM in assay [2] and 1000 nM in assay [3]. The Selectivity in assay [4] came out at 105; in assay [5], 137.
`C=CCN1CC[C@]23c4c5ccc(O)c4O[C@H]2c2c(c4ccccc4n2Cc2ccccc2Cl)C[C@@]3(OCc2ccccc2Cl)[C@H]1C5`: the results for the Ki in assay [1], in assay [2] and in assay [3] were 721000 nM, 151 nM and 1230 nM, respectively. The Selectivity in assay [4] stood at 4800; in assay [5], 8.2.
